Where “and” joins values, the source holds several entries; their conditions need not be identical. Equal entries are not always repeated.
Assays:
[1] = system: NCI-H211 small cell lung cancer (SCLC) cells; assay: AlamarBlue assay, NCI-H211; type: cell-based; details: for Cellular activity in SCLCs (H211), alamarBlue: Fig.1e, replicates
Summary of the method: (§1)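 BRD4 (BD1+BD2) binding to acetylated histone H4 was measured with a TR-FRET kit per the kit protocol. For the AlamarBlue assays, MDA-MB231, NCI-H211 and A375 cells were plated at ~30% confluence, adhered overnight and treated. Resazurin (0.3 mg/ml reagent) was added for 18 h and fluorescence read at ex 530/em 590 nm.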

[2] = system: MDA-MB231 triple negative breast cancer (TNBC) cells; assay: AlamarBlue assay, MDA-MB231; type: cell-based, human; details: for Cellular activity in TNBCs (MDA-MB231), alamarBlue: Fig.1f, replicates
Summary of the method: as §1

A375 human melanoma = A375 human melanoma xenograft tumor growth; type: in vivo, mouse; details: Fig.3e, Group 5, 1 mg/kg PO QD, 5 Days on, 2 Days off / week x3, individual animals
From the text: PO, oral administration; QD, once daily; BID, twice daily. b–d Tumor growth curves for A2780 ovarian tumor (n = 5) (b), TMD8 large B cell lymphoma (n = 6) (c), and B16F10 melanoma (n = 5) (d) bearing mice treated with the indicated compounds once daily for 11-21 days. e, f Tumor growth curves for A375 melanoma (n = 6) (e), and patient-derived xenograft (PDX) of melanoma (n = 5) (f) bearing mice treated with the indicated compounds once daily (5 days on, 2 days off) for 21 days. For d–f, NHWD-870 used is NHWD-870-HCl synthesized using Suzuki coupling route. Data are presented as mean ± SEM in (a, b, d, f) and mean + SEM in (c, e). p values were calculated using two-tailed, unpaired t tests. *p < 0.05; **p < 0.01; ***p < 0.001. Source data are provided as a Source Data file.
4–6 weeks old female BALB/c nude mice were used for most experiments, with the exception of 6–8 weeks old female C57BL/6 mice were used for B16F10 experiments, and 6–8 weeks old male BALB/c nude mice and SD rats were used for pharmacokinetic experiments. All animals were purchased from Shanghai SIPPR-Bk Lab Animal Co., Ltd. All animals were housed under a regimen of 12 h light/12 h dark cycles and specific pathogen-free conditions. 5×10^6 NCI-H526, ES-2, MDA-MB231, A2780, A375, B16F10, and TMD-8 cells (0.1 ml) were injected subcutaneously into female nude mice. The melanoma patient-derived xenograft model was derived from a human melanoma sample (BRAF, NARS and NF1 wild type, and p53 mutant) removed from a patient in Xiangya Hospital. Surgically removed tumor fragments were implanted subcutaneously into female NSG mice. When the tumors grew to ~1000 mm^3, they were harvested and cryopreserved or immediately re-implanted for expansion or experiments. Mouse body weight and tumor sizes were measured every 3 days. Once the tumors grew to 150–200 mm^3, mice were treated with the compounds as described in the Figures. 1 × 10^6 A2780 cells (1 ml) were injected into the abdominal cavity of nude mice. Ascitic volume and tumor weight were measured by an electronic balance. All the procedures were evaluated and approved by the Institutional Animal Care and Use Committee of Central South University and Yale University. […]
We apologize for not clearly labeling the experiments using compounds synthesized using Suzuki coupling method. In the revised manuscript, we modified the text to clearly mark the animal models in Fig 3d-f were tested using NHWD-870 synthesized using Suzuki […]
compared the activity of NHWD-870 synthesized using Stille coupling route with the NHWD-870 synthesized from Suzuki coupling route (Reviewer Figure 1). […]
activity and possible toxicity were identical.
Reviewer Figure 1 NHWD-870 synthesized through Stille or Suzuki route has similar properties in vivo. Tumor bearing mice were treated with 2mg/kg of the indicated compounds, orally administrated once daily for 21 days. Shown are tumor growth curves (a) and body weight change (b) for A375 melanoma bearing mice. […]
986158 in terms of potency, but apart from with the A375 melanocyte cell line, the advance seems relatively moderate. With such similar compounds, the pharmacokinetic properties and ability to accumulate at the desired site is often more important. Figure S6d (prev. Fig. 3d) in the previous

H526 tumors = assay: Immunofluorescent staining of cleaved caspase 3 and Ki67 in H526 tumors; type: in vivo, mouse; details: treated H526 tumors, independent images
Protocol: Immunofluorescence staining of tumor sections was performed according to the manufacturer’s instructions. Slides were imaged using a Zeiss Axiovert 200 fluorescence microscope (Carl Zeiss MicroImaging; Thornwood, NY), and images were captured using Openlab3 software (Imprecision, Lexington, MA). Cleaved caspase 3, Ki67, CSF1, and CD68 positive cells were counted with ImageJ version 1.52s[58].
Supplementary Figure 10. NHWD-870 increased tumor apoptosis and inhibite d tumor proliferation.
(a,b) Immunofluorescent staining of cleaved caspase 3 (apoptotic cells, red) and E-Cadherin (cancer cells, […]
green) in vehicle, NHWD-870 or BMS-986158 treated H526 tumors from Figure 4a. Shown are […]
representative images of cleaved caspase 3 positive cells (a) and quantification of cleaved caspase 3 positive […]
cells (b). Scale bar is 30 μm. Data are presented as mean ± SEM from 6 independent images. p values were […]
calculated using two-tailed, unpaired t tests. **, p<0.01; ***, p<0.001. (c,d) Immunofluorescent staining of […]
Ki67 (proliferating cells, red) and E-Cadherin (cancer cells, green) in vehicle, NHWD-870 or BMS-986158 […]
treated H526 tumors from (Figure 4a). Shown are representative images of Ki67 positive cells (c) and […]
quantification of Ki67 positive cells (d). Scale bar is 30 μm. […]
independent images. p values were calculated using two-tailed, unpaired t tests. *, p<0.05; ***, p<0.001. […]

[3] = Body weight change of H526 SCLC tumor bearing mice; details: for Mouse body weight changes (%) from Day 0: 3mg/kg, QDx21D, 3 mg/kg

Cc1nnn(C)c1-c1cnc2c3ccc(C(C)(C)O)cc3n([C@H](c3ccccc3)C3CCOCC3)c2c1 [BMS-986158, reference compound]
Cellular activity in SCLCs (H211), alamarBlue ([1]; concentration 0.0169701): 0.078 and 7.88
Cellular activity in SCLCs (H211), alamarBlue ([1]; concentration 0.0398488): 0.019 and 6.06
Cellular activity in SCLCs (H211), alamarBlue ([1]; concentration 0.137272): 0.036 and 13.2
Cellular activity in SCLCs (H211), alamarBlue ([1]; concentration 0.614394): 28.16 and 35.58
Cellular activity in SCLCs (H211), alamarBlue ([1]; concentration 1.09152): 74.14 and 79.88
Cellular activity in SCLCs (H211), alamarBlue ([1]; concentration 1.56864): 88.17 and 88.8
Cellular activity in SCLCs (H211), alamarBlue ([1]; concentration 2.04576): 89.55 and 89.3
Cellular activity in SCLCs (H211), alamarBlue ([1]; concentration 3): 86.89 and 89.73
Cellular activity in SCLCs (H211), alamarBlue ([1]; concentration column prints 2.52288): 87.67 and 88.48
IC50 ([1]; Homo sapiens, NCI-H211, 72 h, 72 h treatment, nM, read-out: IC50, cellular activity in NCI-H211 (alamarBlue)): 6.6 nM
Cellular activity in TNBCs (MDA-MB231), alamarBlue ([2]; concentration 0.15): 20.45 and 20.15
Cellular activity in TNBCs (MDA-MB231), alamarBlue ([2]; concentration 0.6): 51.35 and 50.6
Cellular activity in TNBCs (MDA-MB231), alamarBlue ([2]; concentration 1): 73.39 and 72.09
Cellular activity in TNBCs (MDA-MB231), alamarBlue ([2]; concentration 1.5): 83.55 and 84.39
Cellular activity in TNBCs (MDA-MB231), alamarBlue ([2]; concentration 2): 88.19 and 87.76
Cellular activity in TNBCs (MDA-MB231), alamarBlue ([2]; concentration 2.5): 88.65 and 88.13
Cellular activity in TNBCs (MDA-MB231), alamarBlue ([2]; concentration 3): 90.46 and 90.37
Cellular activity in TNBCs (MDA-MB231), alamarBlue ([2]; concentration -0.3): 6.95 and 6.37
Cellular activity in TNBCs (MDA-MB231), alamarBlue ([2]; concentration -0.9): 4.15 and 1.05
IC50 ([2]; Homo sapiens, MDA-MB-231, 72 h, 72 h treatment, nM, read-out: IC50, cellular activity in MDA-MB231 (alamarBlue)): 5 nM
Tumor volume (A375 human melanoma; day 0): 150.774 mm3 and 118.553 mm3 and 191.653 mm3 and 150.802 mm3 and 127.386 mm3 and 173.315 mm3
Tumor volume (A375 human melanoma; day 4): 190.606 mm3 and 233.18 mm3 and 278.289 mm3 and 235.064 mm3 and 184.498 mm3 and 135.54 mm3
Tumor volume (A375 human melanoma; day 7): 243.772 mm3 and 508.815 mm3 and 374.344 mm3 and 456.749 mm3 and 169.114 mm3 and 146.329 mm3
Tumor volume (A375 human melanoma; day 11): 541.178 mm3 and 982.065 mm3 and 955.744 mm3 and 627.932 mm3 and 275.862 mm3 and 357.353 mm3
Tumor volume (A375 human melanoma; day 14): 840.395 mm3 and 1426.45 mm3 and 1137.31 mm3 and 1074.5 mm3 and 373.109 mm3 and 473.708 mm3
Tumor volume (A375 human melanoma; day 18): 1260.47 mm3 and 1267.54 mm3 and 1188.69 mm3 and 1129.05 mm3 and 402.127 mm3 and 719.097 mm3
Tumor volume (A375 human melanoma; day 21): 1603.7 mm3 and 1878.69 mm3 and 1789.35 mm3 and 1645.42 mm3 and 683.962 mm3 and 956.808 mm3
% of KI67 (Ki67 positive cells) (H526 tumors): 15% and 17% and 13% and 16% and 12%
Body weight change (%) ([3]; 3mg/kg,QD, day 0 and day 20 or the last available data point, individual mice): -8.559% and -23.2889% and -19.9501% and -12.3957%
Mouse body weight changes (%) from Day 0 ([3]; Day 3, individual mice): -2.33% and 1.06% and -4.40% and 1.07% and 0.98% and -1.46%
Mouse body weight changes (%) from Day 0 ([3]; Day 7, individual mice): -0.51% and -2.62% and -8.04% and -1.69% and -7.56% and -3.13%
Mouse body weight changes (%) from Day 0 ([3]; Day 10, individual mice): 0.08% and -4.17% and 1.65% and -15.38% and -17.07% and -3.30%
Mouse body weight changes (%) from Day 0 ([3]; Day 14, individual mice): -5.26% and -0.68% and -6.36% and 0.13% and -8.04% and -3.28%
Mouse body weight changes (%) from Day 0 ([3]; Day 17, individual mice): -6.72% and -1.06% and -1.00% and -0.31% and -23.29% and -5.11%
Mouse body weight changes (%) from Day 0 ([3]; Day 20, individual mice): -12.40% and -8.56% and -1.00% and 1.16% and -19.95%
body weight loss ([3]; H526 SCLC tumor bearing mice, 3mg/kg QD): about 11%

Source: publication PMC7156724, “Potent BRD4 inhibitor suppresses cancer cell-macrophage interaction” (Nature Communications, 2020)
